Our source for the Activity and inhibition of growth values is ChEMBL document CHEMBL1156276, “Solvent free synthesis, anti-inflammatory and anticancer activity evaluation of tricyclic and tetracyclic benzimidazole derivatives” (2010).

Common to all, as to assay type: functional
Test [1] deals with Rattus norvegicus. The experiment in a line: Antiinflammatory activity against carrageenan-induced paw edema in rat assessed as paw volume at 50 mg/kg, po administered 30 mins before carrageenan challenge measured after 1 to 3 hrs by water plethysmometer relative to control. (In general: In the carrageenan paw model, swelling and tenderness develop within hours.)
The test system of test [2] is IGROV-1. The experiment in a line: Anticancer activity against human IGROV1 cells assessed as cell growth inhibition at 10 uM after 48 hrs by SRB assay. As to conditions: IGROV-1, 48 h, read-out: GI. Background: The SRB assay estimates cell density from bound dye.
Test [3] has as its system SF-295. The experiment in a line: Anticancer activity against human SF295 cells assessed as cell growth inhibition at 10 uM after 48 hrs by SRB assay. As to conditions: SF-295, 48 h, read-out: GI.
Test [4] has as its system MCF7. The test is described as follows: Anticancer activity against human MCF7 cells assessed as cell growth inhibition at 10 uM after 48 hrs by SRB assay. As to conditions: MCF7, 48 h, read-out: GI.
The subject of test [5] is A549. The experiment in a line: Anticancer activity against human A549 cells assessed as cell growth inhibition at 10 uM after 48 hrs by SRB assay. As to conditions: A549, 48 h, read-out: GI.
Test [6] relates to PC-3. The experiment in a line: Anticancer activity against human PC3 cells assessed as cell growth inhibition at 10 uM after 48 hrs by SRB assay. As to conditions: PC-3, 48 h, read-out: GI.
Test [7] relates to HOP-62. The experiment in a line: Anticancer activity against human HOP62 cells assessed as cell growth inhibition at 10 uM after 48 hrs by SRB assay. As to conditions: HOP-62, 48 h, read-out: GI.

Where a name gives a salt, the structure may show the parent alone.

`Cc1cc2[nH]c3cc4ccccc4c(=O)n3c2cc1C`: the Activity in test [1] came to 29.6%. The inhibition of growth at 10 µM in test [2] is 7%; in test [3] it was 13%; in test [4], 22%; in test [5] it was 41%; in test [6], 39%; in test [7] it was 0%.
As to `O=c1c2ccccc2cc2[nH]c3cccc(O)c3n12`, the Activity in test [1] was 31.8%. In addition, the inhibition of growth at 10 µM in test [2] was found to be 15%; in test [3], 55%; in test [4], 20%; in test [5], 0%; in test [6], 13%; in test [7], 0%.
`O=C1c2nccnc2C2=NC3CCCCC3N12` (configuration not stated): the Activity in test [1] worked out at 25.6%. Besides, the inhibition of growth at 10 µM in test [2] was 28%; in test [3], 37%; in test [4], 48%; in test [5], 10%; in test [6], 15%; in test [7] it was 6%.
For the compound `Cc1cc2nc3n(c2cc1C)C(=O)c1nccnc1-3`, the Activity in test [1] is reported as 15.9%. In addition, the inhibition of growth at 10 µM in test [2] came to 7%; in test [3], 13%; in test [4], 22%; in test [5], 25%; in test [6] it was 39%; in test [7] it was 0%.
`O=C1c2nccnc2C2=Nc3ccccc3CN12`: the Activity in test [1] came out at 28.6%. For the same compound, the inhibition of growth at 10 µM in test [2] was determined as 55%; in test [3], 66%; in test [4], 56%; in test [5], 48%; in test [6], 46%; in test [7] it was 23%.
As for `O=C1c2nccnc2-c2nc3ccccc3n21`, the Activity in test [1] amounted to 10%. Besides, the inhibition of growth at 10 µM in test [2] was 15%; in test [3], 25%; in test [4] it was 20%; in test [5], 0%; in test [6], 13%; in test [7], 10%.
With `O=C1CCC2=NC3CCCCC3N12` (configuration not stated), the Activity in test [1] is on record as 19.7%. In addition, the inhibition of growth at 10 µM in test [2] stood at 2%; in test [3], 38%; in test [4], 13%; in test [5], 2%; in test [6], 16%; in test [7], 0%.
In the case of `O=C1CCc2nc3cccc(O)c3n21`, in test [1], the Activity was 39.2%. Besides, the inhibition of growth at 10 µM stood at 20% in test [2]; 53% in test [3]; 22% in test [4]; 0% in test [5]; 13% in test [6]; 9% in test [7].
As for `O=C1CCc2nc3ccc(Br)cc3n21`, in test [1], the Activity is 10%. Also, the inhibition of growth at 10 µM in test [2] was determined as 50%; in test [3] it was 0%; in test [4] it was 31%; in test [5], 12%; in test [6] it was 40%; in test [7] it was 16%.
As for `O=C1CCc2nc3ccc([N+](=O)[O-])cc3n21`, the Activity in test [1] is listed as 0%. Moreover, the inhibition of growth at 10 µM in test [2] is 0%; in test [3] it was 38%; in test [4], 12%; in test [5], 5%; in test [6] it was 8%; in test [7] it was 0%.
`N#Cc1ccc2nc3n(c2c1)C(=O)CC3`: the Activity in test [1] is recorded as 9%. Further, the inhibition of growth at 10 µM in test [2] came to 21%; in test [3] it was 52%; in test [4], 25%; in test [5] it was 6%; in test [6] it was 3%; in test [7] it was 0%.
As for `Cc1cccc2nc3n(c12)C(=O)CC3`, the Activity in test [1] came to 29.9%. Besides, the inhibition of growth at 10 µM in test [2] came to 3%; in test [3], 38%; in test [4] it was 8%; in test [5], 2%; in test [6], 14%; in test [7], 0%.
With `O=C1CCc2nc3ccc(Cl)cc3n21`, the Activity in test [1] amounted to 27.6%. Further, the inhibition of growth at 10 µM was 0% in test [2]; 37% in test [3]; 52% in test [4]; 3% in test [5]; 14% in test [6]; 11% in test [7].
Turning to `O=c1c2ccccc2cc2n1C1CCCCC1N2` (configuration not stated), the Activity in test [1] was determined as 34.7%. Moreover, the inhibition of growth at 10 µM in test [2] is 28%; in test [3], 0%; in test [4], 6%; in test [5], 10%; in test [6] it was 6%; in test [7], 12%.
Consider `Cc1cc2nc3n(c2cc1C)C(=O)CC3`, for which, in test [1], the Activity is given as 39.4%. Besides, the inhibition of growth at 10 µM stood at 26% in test [2]; 54% in test [3]; 8% in test [4]; 0% in test [5]; 7% in test [6]; 4% in test [7].
In the case of `COc1cccc2c1C(=O)c1c(O)c3c(c(O)c1C2=O)C[C@@](O)(C(=O)CO)C[C@@H]3O[C@H]1C[C@H](N)[C@H](O)[C@H](C)O1` [DOXORUBICIN HYDROCHLORIDE], the inhibition of growth at 10 µM in test [3] came to 69%; in test [4], 72%.
Take `CO[C@@]12[C@H](COC(N)=O)C3=C(C(=O)C(C)=C(N)C3=O)N1C[C@@H]1N[C@@H]12` [MITOMYCIN]: the inhibition of growth at 10 µM was determined as 43% in test [3] and 53% in test [6].
On to `CC(=O)O[C@H]1C(=O)[C@@]2(C)[C@H]([C@H](OC(=O)c3ccccc3)[C@]3(O)C[C@H](OC(=O)[C@H](O)[C@@H](NC(=O)c4ccccc4)c4ccccc4)C(C)=C1C3(C)C)[C@]1(OC(C)=O)CO[C@@H]1C[C@@H]2O` [PACLITAXEL], for which the inhibition of growth at 10 µM in test [2] stood at 43%; in test [5], 50%; in test [7], 42%.
